Reference: PMC12010937, “Evaluation of FXR Activity in Pollutants Identified in Sewage Sludge and Subsequent in Vitro and in Vivo Characterization of Metabolic Effects of Triphenyl Phosphate” (Environmental Health Perspectives, 2025)
Several values for one entry are separate records, joined by “and”; a condition that tells them apart may be missing. Equal entries are not always repeated. Where two headings read alike, the source gives them in different places.

Tests used:
[1] = molecular target: T1, human FXR-LBD (GST-FXR-LBD) (Homo sapiens, UniProt Q96RI1); experiment: HTRF coactivator recruitment assay, agonist mode; type: biochemical; conditions: for Ratio of 665nm/615nm: FXR agonists (Figure S3A), replicates
T1 construct: the human FXR-LBD (residues 234–472) was expressed as a GST fusion protein GST-FXR-LBD; made in house; host or cells: E. coli BL21(DE3)
T1 sequence (Q96RI1 234-472 isoform Q96RI1-2): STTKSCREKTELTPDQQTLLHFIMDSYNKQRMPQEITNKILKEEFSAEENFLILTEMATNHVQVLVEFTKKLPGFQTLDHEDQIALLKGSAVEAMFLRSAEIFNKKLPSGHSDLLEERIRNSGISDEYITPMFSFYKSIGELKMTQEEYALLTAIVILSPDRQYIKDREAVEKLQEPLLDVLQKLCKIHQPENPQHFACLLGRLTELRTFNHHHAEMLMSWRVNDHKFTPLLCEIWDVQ

[2] = molecular target: T1, human FXR-LBD (GST-FXR-LBD); experiment: HTRF coactivator recruitment assay, antagonist mode (in the presence of 50 μM CDCA); type: biochemical; conditions: for Ratio of 665nm/615nm: FXR antagonists (Figure S3B); for activity at 1.95 µM: 1.95 μM compound + 50 μM CDCA; for activity at 3.9 µM: 3.90 μM compound + 50 μM CDCA; for activity at 31.25 µM: 31.25 μM compound + 50 μM CDCA; for activity at 62.5 µM: 62.50 μM compound + 50 μM CDCA; for IC50: read-out: IC50, inhibition of CDCA-induced coactivator recruitment to FXR
FXR = test system: FXR; parameters: method as in PMID 12166927; conditions: read-out: EC50 (FXR agonist); cited from earlier work
[3] = molecular target: T2, human FXR-LBD (6His-FXR-LBD) (Homo sapiens, UniProt Q96RI1); experiment: FXR protein affinity pull-down assay; type: binding; conditions: 100 nM OCA
T2 construct: human FXR (residues 243–472) was expressed and purified as an amino-terminal 6His fusion protein; made in house; host or cells: E. coli BL21(DE3)
T2 sequence (Q96RI1 243-472 isoform Q96RI1-2): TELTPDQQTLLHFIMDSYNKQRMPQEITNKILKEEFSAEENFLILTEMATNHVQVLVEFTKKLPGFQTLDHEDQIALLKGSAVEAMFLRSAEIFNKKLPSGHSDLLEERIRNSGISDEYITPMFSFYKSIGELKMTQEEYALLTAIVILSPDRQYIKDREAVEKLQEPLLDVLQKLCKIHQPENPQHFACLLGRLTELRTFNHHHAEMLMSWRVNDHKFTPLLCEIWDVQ
Description: The ligand binding domain (LBD) of human FXR (residues 243–472) was expressed and purified as an amino-terminal 6His fusion protein based on the prokaryotic expression vector pACYCDuet-1, and the pACYCDuet-1-6His-FXR-LBD plasmid was synthesized by the Beijing Genomics Institute (BGI). In detail, the gene encoding human FXR-LBD was first synthesized by BGI and then subcloned into the pACYCDuet-1 vector predigested with BamHI/NotI (SE0054/SE0594; SibEnzyme) according to the manufacturer’s protocol. In brief, the vector was predigested at 37°C for 15 min, subsequently mixed with the synthesized FXR-LBD cDNA and seamless assembly mix (BGI), and incubated at 52°C for 30 min. Then, the new plasmid construct pACYCDuet-1-6His-FXR-LBD was transformed into Escherichia coli Top10 Competent Cells (BGI) by heat shock transformation (the mixture was incubated on ice for 30 min, then incubated at 42°C for 90 s and transferred to ice for 3 min). Finally, the pACYCDuet-1-6His-FXR-LBD plasmid were extracted from the positive clone, confirmed by sequencing and provided by BGI. The pACYCDuet-1-6His-FXR-LBD plasmid was transformed into E. coli BL21(DE3) cells (Tiangen Biotech) by heat shock transformation (the mixture was incubated on ice for 30 min, then incubated at 42°C for 90 s, and then transferred to ice for 3 min). The transformed E. coli was grown in lysogeny broth (LB) medium at 37°C to OD600 about 0.8–1.0, and then protein expression was induced with 0.5 mM isopropyl β-d-1-thiogalactopyranoside (IPTG) at 25°C for 5 h. The cells were harvested by centrifugation at 4°C and 5,000×g for 10 min, and the harvested cells were subjected to ultrasonic disruption (5 s on, 7 s off, 150 cycles) using an ultrasonic homogenizer (Ningbo Scientz Biotechnology) and centrifugation at 4°C and 12,000×g for 1 h. […] Finally, the purity of the 6His-FXR-LBD protein was detected by sodium dodecyl sulfate-polyacrylamide gel electrophoresis (SDS-PAGE) with 4%–15% Bis-tris SDS-PAGE gel (Sangon Biotech), which was stained with Coomassie brilliant blue R250 Protein Stain Reagent (Coolaber). […]

[4] = molecular target: T3, FXR (pCDNA3.1-hFXR, FXRE-luc) (Homo sapiens, UniProt Q96RI1); experiment: cell-based; type: cell-based
T3 construct: host or cells: HEK 293T
T3 sequence (Q96RI1 1-486): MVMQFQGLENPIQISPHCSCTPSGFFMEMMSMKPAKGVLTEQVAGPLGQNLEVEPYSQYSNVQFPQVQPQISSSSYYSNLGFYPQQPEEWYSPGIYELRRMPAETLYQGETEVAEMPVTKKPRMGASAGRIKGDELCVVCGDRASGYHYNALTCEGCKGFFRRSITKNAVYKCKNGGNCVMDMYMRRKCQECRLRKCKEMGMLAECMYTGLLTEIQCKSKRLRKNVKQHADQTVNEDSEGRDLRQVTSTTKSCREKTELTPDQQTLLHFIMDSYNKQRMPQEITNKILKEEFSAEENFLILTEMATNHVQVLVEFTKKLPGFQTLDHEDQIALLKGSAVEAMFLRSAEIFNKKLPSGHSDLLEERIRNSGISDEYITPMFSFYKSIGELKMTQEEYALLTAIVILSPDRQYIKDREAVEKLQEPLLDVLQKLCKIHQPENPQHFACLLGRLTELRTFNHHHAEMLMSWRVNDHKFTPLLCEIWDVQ

[5] = replicates, read-out: Relative antagonist activity (%)
[6] = read-out: Relative antagonist activity (%)

CC[C@H]1[C@@H](O)[C@@H]2[C@H](CC[C@]3(C)[C@@H]([C@H](C)CCC(=O)O)CC[C@@H]23)[C@@]2(C)CC[C@@H](O)C[C@@H]12 [OCA, obeticholic acid]
Recovery of OCA pulled down by control protein ([3]; boiled inactivated (denatured) FXR-LBD as negative control, n=3): 4.69% and 4.09% and 4.45%
Recovery of OCA pulled down by the FXR-LBD protein ([3]; purified 6His-FXR-LBD, n=3): 91.28% and 89.1% and 85.93%

CCCCCCCC/C=C\CCCCCCCC(=O)NCCO [OEA, oleoyl ethanolamide]
Relative activity, agonist mode [1]: 0.00%
activity at 0.98 µM ([2]; 0.98 μM compound + 50 μM CDCA, replicates, read-out: Relative antagonist activity (%)): 106%
activity at 1.95 µM [2, 5]: 114%
activity at 3.9 µM [2, 5]: 110%
activity at 7.8 µM ([2]; 7.80 μM compound + 50 μM CDCA, replicates, read-out: Relative antagonist activity (%)): 110%
activity at 31.25 µM [2, 5]: 102%
activity at 62.5 µM [2, 5]: 101%
activity at 125 µM ([2]; 125.00 μM compound + 50 μM CDCA, replicates, read-out: Relative antagonist activity (%)): 96.2%
activity at 250 µM ([2]; 250.00 μM compound + 50 μM CDCA, standardized to DMSO and 50 μM CDCA, replicates, read-out: Relative antagonist activity (%)): 89.5%
activity at […] ([2]; […] compound + 50 μM CDCA, replicates, read-out: Relative antagonist activity (%)): 104%
IC50 [2]: 34 µM
Relative luciferase activity (%) ([4]; 10 μM compound in the presence of 50 μM CDCA, DMSO 0%, 50 μM CDCA 100%, HEK 293T, replicates): 99.0% and 100.1% and 128.0%
Relative luciferase activity (%) ([4]; 25 μM compound in the presence of 50 μM CDCA, DMSO 0%, 50 μM CDCA 100%, HEK 293T, replicates): 96.5% and 110.1%
activity at 25 µM ([4]; HEK-293T, 25 μM compound in the presence of 50 μM CDCA, DMSO 0%, 50 μM CDCA 100%, HEK 293T, replicates, read-out: Relative luciferase activity (%)): 110%

Oc1cc(Cl)ccc1Oc1ccc(Cl)cc1Cl [TLS, triclosan]
Relative activity, agonist mode [1]: 13.3% and 13.26%
activity at 1.95 µM [2, 5]: 91.4%
activity at 3.9 µM [2, 5]: 87.5%
activity at 31.25 µM [2, 5]: 34.6%
Relative activity, antagonist mode ([2]; 50 μM compound in the presence of 50 μM CDCA, standardized against positive control DY268 (50 μM = 100%)): 65.82%
activity at 62.5 µM [2, 5]: 4.81%
IC50 [2]: 28.2 µM
activity at 0.98 µM [2, 6]: 91%
activity at 7.8 µM [2, 6]: 79.8%
activity at […] [2, 6]: 61.3%
Luciferase activity compared with DMSO control (in words) [4]: significantly less luciferase activity
activity at 10 µM ([4]; HEK-293T, read-out: Relative luciferase activity (%)): 24.8%
